Laboratory results taken from patent publication US6667303B1, “Aryl substituted 1,4-diazepanes and method of use thereof” (Wyeth, priority 2001, dated 2003).
Like-named read-outs stand apart in the source and are kept apart here.

How the values were obtained:
[1] = target: T1, human 5-hydroxytryptamine2C (h5HT2C) receptor (Homo sapiens, UniProt P28335); test: 5HT2C receptor binding assay ([125I] DOI displacement)
T1 construct: expressed in transfected cells; host or cells: CHO (Chinese Hamster Ovary) cells; membrane preparation
T1 sequence (P28335 33-458): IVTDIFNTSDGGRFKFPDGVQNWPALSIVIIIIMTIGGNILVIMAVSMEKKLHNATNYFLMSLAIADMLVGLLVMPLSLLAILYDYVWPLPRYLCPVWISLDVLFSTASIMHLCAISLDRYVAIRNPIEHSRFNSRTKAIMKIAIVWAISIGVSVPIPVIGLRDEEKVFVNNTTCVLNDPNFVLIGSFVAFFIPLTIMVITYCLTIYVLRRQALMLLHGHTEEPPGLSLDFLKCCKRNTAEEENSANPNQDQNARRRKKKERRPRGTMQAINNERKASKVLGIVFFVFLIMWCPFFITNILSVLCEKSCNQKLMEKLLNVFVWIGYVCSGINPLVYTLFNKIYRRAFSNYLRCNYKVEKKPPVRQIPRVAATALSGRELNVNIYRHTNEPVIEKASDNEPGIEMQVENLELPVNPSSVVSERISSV
Description: To determine for compounds of Formula (I) the affinity for the 5HT2C receptor, the following 5HT2C receptor binding assay was performed. A CHO (Chinese Hamster Ovary) cell line transfected with the cDNA expressing the human 5-hydroxytryptamine2C (h5HT2C) receptor was maintained in DMEM (Dulbecco's Modified Eagle Media) supplied with fetal calf serum, glutamine, and the markers: guaninephosphoribosyl transferase (GTP) and hypoxanthinethymidine (HT). The cells were allowed to grow to confluence in large culture dishes with intermediate changes of media and splitting. Upon reaching confluence, the cells were harvested by scraping. The harvested cells were suspended in half volume of fresh physiological phosphate buffered saline (PBS) solution and centrifuged at low speed (900×g). This operation was repeated once more. The collected cells were then homogenized with a polytron at setting #7 for 15 sec in ten volumes of 50 mM Tris.HCl, pH 7.4 and 0.5 mM EDTA. The homogenate was centrifuged at 900×g for 15 min to remove nuclear particles and other cell debris. The pellet was discarded and the supernatant fluid recentrifuged at 40,000×g for 30 min. The resulting pellet was resuspended in a small volume of Tris.HCl buffer and the tissue protein content was determined in aliquots of 10-25 microliter (μl) volumes. Bovine Serum Albumin (BSA) was used as the standard in the protein determination by the method of Lowry et al., (J. Biol. Chem., 193:265 (1951)). The volume of the suspended cell membranes was adjusted with 50 mM Tris.HCl buffer containing: 0.1% ascorbic acid, 10 mM pargyline and 4 mM CaCl2 to give a tissue protein concentration of 1-2 mg per ml of suspension. The preparation membrane suspension (many times concentrated) was aliquoted in 1 ml volumes and stored at −70° C. until used in subsequent binding experiments.
Binding experiments were performed in a 96 well microtiter plate format, in a total volume of 200 μl. To each well was added: 60 μl of incubation buffer made in 50 mM Tris.HCl buffer, pH 7.4 and containing 4 mM CaCl2; 20 μl of […] DOI [1-(4-iodo-2,5-dimethoxyphenyl)-2-aminopropane] (S.A., 2200 Ci/mmol, NEN Life Science).
DOI. The reaction was initiated by the final addition of 100.0 μl of tissue suspension containing 50 μg of receptor protein. Nonspecific binding was measured in the presence of 1 μM unlabeled DOI added in 20.0 μl volume. Test compounds are added in […]. The mixture was incubated at room temperature for 60 min. The incubation was stopped by rapid filtration. The bound ligand-receptor complex was filtered off on a 96 well unifilter with a Packard® Filtermate 196 Harvester. The bound complex caught on the filter disk was dried in a vacuum oven heated to 60° C. and the radioactivity measured by liquid scintillation with 40 μl Microscint-20 scintillant in a Packard TopCount® equipped with six (6) photomultiplier detectors.
Description of this method can be found in Sanders-Bush, E. et al., Putative selective 5-HT2C antagonists block serotonin 5-HT1C receptors in the choroid plexus, J. Pharmacol. Exper. Ther., 247: 169-173 (1988), and Akiyoshi, J., et al., Effects of antidepressants on intracellular calcium mobilization in CHO cells transfected with the human 5-HT2C receptors, Biol. Psychiatry, 39:1000-1008 (1996).
Specific binding is defined as the total radioactivity bound less the amount bound in the presence of 1 μM unlabeled DOI. Binding in the presence of varying concentrations of test drugs was expressed as percent of specific binding in the absence of drug. […] Alternatively, a linear regression line of decline of data points was plotted, from which the IC50 value was read off the curve and the Ki value determined by solving the following equation: [formula]

[2] = target: T2, human serotonin 5HT2C receptor (Homo sapiens, UniProt P28335); test: saturation binding with increasing concentrations of [125I] DOI
T2 construct: expressed in transfected cells; host or cells: CHO (Chinese Hamster Ovary) cells; membrane preparation
T2 sequence (P28335 33-458): T1 sequence (P28335 33-458)
Description: To determine for compounds of Formula (I) the affinity for the 5HT2C receptor, the following 5HT2C receptor binding assay was performed. A CHO (Chinese Hamster Ovary) cell line transfected with the cDNA expressing the human 5-hydroxytryptamine2C (h5HT2C) receptor was maintained in DMEM (Dulbecco's Modified Eagle Media) supplied with fetal calf serum, glutamine, and the markers: guaninephosphoribosyl transferase (GTP) and hypoxanthinethymidine (HT). The cells were allowed to grow to confluence in large culture dishes with intermediate changes of media and splitting. Upon reaching confluence, the cells were harvested by scraping. The harvested cells were suspended in half volume of fresh physiological phosphate buffered saline (PBS) solution and centrifuged at low speed (900×g). This operation was repeated once more. […] The resulting pellet was resuspended in a small volume of Tris.HCl buffer and the tissue protein content was determined in aliquots of 10-25 microliter (μl) volumes. […]
The dissociation constant, KD of [^125I] […] Nonspecific binding was measured in the presence of 1 μM unlabeled DOI added in 20.0 μl volume. […] The bound complex caught on the filter disk was dried in a vacuum oven heated to 60° C. and the radioactivity measured by liquid scintillation with 40 μl Microscint-20 scintillant in a Packard TopCount® equipped with six (6) photomultiplier detectors.

[3] = membranes of CHO cells expressing h5HT2C, radioligand [125I] DOI, room temperature, 60 min, read-out: 5HT2C Binding Affinity Ki

Row | Compound | Ki [1] | Ki [1, 3] | other results
1 | COc1cc(CC(C)N)c(OC)cc1I (stereo not shown) [DOI, 1-(4-iodo-2,5-dimethoxyphenyl)-2-aminopropane, reference compound] | 19.5 nM |  | 
2 | COc1ccc(CN2C(=O)c3cccc4c(N5CCCN(CC(C)(C)C)CC5)ccc2c34)cc1 [Example 5, 1-(4-methoxybenzyl)-6-(4-neopentyl-1,4-diazepan-1-yl)benzo[cd]indol-2(1H)-one] |  | 132 nM | 
3 | COc1ccc(CN2C(=O)c3cccc4c(N5CCCN(CCCc6ccccc6)CC5)ccc2c34)cc1 [Example 11] |  | 165 nM | 
4 | COc1ccc(CN2C(=O)c3cccc4c(N5CCCN(CC6CCC6)CC5)ccc2c34)cc1 [Example 13, 6-[4-(cyclobutylmethyl)-1,4-diazepan-1-yl]-1-(4-methoxybenzyl)benzo[cd]indol-2(1H)-one] |  | 257 nM | 
5 | C=CCN1CCCN(c2ccc3c4c(cccc24)C(=O)N3CC2CCC2)CC1 [Example 22, 6-(4-allyl-1,4-diazepan-1-yl)-1-(cyclobutylmethyl)benzo[cd]indol-2(1H)-one] | 241 nM |  | 
6 | CC(C)CN1CCCN(c2ccc3c4c(cccc24)C(=O)N3CC2CCC2)CC1 [Example 24, 1-(cyclobutylmethyl)-6-(4-isobutyl-1,4-diazepan-1-yl)benzo[cd]indol-2(1H)-one] | 260 nM |  | 
7 | O=C1c2cccc3c(N4CCCN(CCc5ccccc5)CC4)ccc(c23)N1CC1CCC1 [Example 28, 1-(cyclobutylmethyl)-6-[4-(2-phenylethyl)-1,4-diazepan-1-yl]benzo[cd]indol-2(1H)-one] |  | 178 nM | 
8 | O=C1c2cccc3c(N4CCCN(CC5CCC5)CC4)ccc(c23)N1CC1CCC1 [Example 32, 1-(cyclobutylmethyl)-6-[4-(cyclobutylmethyl)-1,4-diazepan-1-yl]benzo[cd]indol-2(1H)-one] | 256 nM |  | 
9 | CCCCCN1CCCN(c2ccc3c4c(cccc24)C(=O)N3CC)CC1 [Example 44, 1-ethyl-6-(4-pentyl-1,4-diazepan-1-yl)benzo[cd]indol-2(1H)-one] |  | 247 nM | 
10 | CCCCCN1CCCN(c2ccc3c4c(cccc24)C(=O)N3CCCC(F)(F)F)CC1 [Example 80, 6-(4-pentyl-1,4-diazepan-1-yl)-1-(4,4,4-trifluorobutyl)benzo[cd]indol-2(1H)-one] | 190 nM |  | 
11 | O=C1c2cccc3c(N4CCCN(CCc5ccccc5)CC4)ccc(c23)N1CCCC(F)(F)F [Example 85, 6-[4-(2-phenylethyl)-1,4-diazepan-1-yl]-1-(4,4,4-trifluorobutyl)benzo[cd]indo-2(1H)-one] |  | 112 nM | 
12 | CCCN1CCCN(c2ccc3c4c(cccc24)C(=O)N3Cc2ccc(OC)cc2)CC1 [Example 88, 1-(4-methoxybenzyl)-6-(4-propyl-1,4-diazepan-1-yl)benzo[cd]indol-2(1H)-one] |  | 243 nM | 
13 | COc1cc(CC(C)N)c(OC)cc1I (stereo not shown) [[^125I] DOI, 1-(4-iodo-2,5-dimethoxyphenyl)-2-aminopropane] |  |  | Kd [2]: 0.4 nM
